Here are results for two compounds from US8986737B2, “Antibiotic microspheres for treatment and prevention of osteomyelitis and enhancement of bone regrowth” (Wm. Marsh Rice University, priority 2002, dated 2015).

Each structure is given as a SMILES string. In brackets after ≈: the same amount, converted by molar mass. Read-outs that look alike come from different tables or passages of the source.

In this test the test system is S. aureus UAMS-1 (ATCC 49230). Kind of test: MIC and MBC determination by standard dilution methods. It is filed as cell-based, Staphylococcus aureus. Here is the method:
The strain of S. aureus used in this study, UAMS-1, was isolated from a patient with osteomyelitis and deposited at the American Type Culture Collection as strain ATCC 49230. The bacteria were prepared from overnight cultures grown in tryptic soy broth at 37° C. with aeration. Cells were harvested by centrifugation, washed with sterile physiological saline, and resuspended to a final concentration of 2×10^8 CFU/ml (OD of 60% transmittance). Cell suspensions were prepared on the day of surgery and held on ice until implanted.
Minimum inhibitory concentration (MIC) and minimum bactericidal concentration (MBC) for the two antibiotics tested, tobramycin and cefazolin, were determined by standard dilution methods published by the National Committee for Clinical Laboratory Standards. Briefly, S. aureus cells were grown and diluted to 0.5 McFarland turbidity standard, approximately 2×10^8 cells/ml. The cells were mixed with either of the two antibiotics tested, at concentrations ranging from 2 μg/ml to 64 μg/ml. The following day, the cultures were examined for turbidity to allow determination of MIC values. After this, sample clear cultures were plated to determine the MBC, and colonies counts were done the next day.
Minimum inhibitory concentration and minimum bactericidal concentration for tobramycin was determined as previously described above, by standard dilution methods published by the National Committee for Clinical Laboratory Standards.

Where [1] appears, read: Staphylococcus aureus, ATCC49230, read-out: MBC.
[2] abbreviates: Staphylococcus aureus, ATCC49230, read-out: MIC.

By MBC is commonly meant the lowest tested concentration that kills the bacteria rather than only halting them. The term MIC denotes the lowest concentration found to suppress growth.

Consider `Cc1nnc(SCC2=C(C(=O)O)N3C(=O)[C@@H](NC(=O)Cn4cnnn4)[C@H]3SC2)s1` [Cefazolin], for which the MBC under setting [1] was found to be 32 µg/mL (≈ 70.4 µM). The MIC under setting [2] stood at 2 µg/mL (≈ 4.4 µM).
On to `NC[C@H]1O[C@H](O[C@H]2[C@H](O)[C@@H](O[C@H]3O[C@H](CO)[C@@H](O)[C@H](N)[C@H]3O)[C@H](N)C[C@@H]2N)[C@H](N)C[C@@H]1O` [Tobramycin], for which the MBC was 16 µg/mL (≈ 34.2 µM) and the MIC lay in the range of 4 to 8 µg/mL. The MBC under setting [1] worked out at 16 µg/mL (≈ 34.2 µM). In addition, the MIC under setting [2] was 4 to 8 µg/mL (≈ 8.56 to 17.1 µM).
